Reference: PubChem BioAssay AID602239 (National Center for Advancing Translational Sciences (NCATS), 2012)

system: mouse liver microsomes with NADPH, LC-MS/MS; test: qHTS for Activators of Human alpha-Glucosidase as a Potential Chaperone Treatment of Pompe Disease: Metabolic Stability in presence of NADPH; conditions: at 5 µM; stronger effect = higher value (more stable)
Description: Alpha-glucosidase is responsible for hydrolysis of terminal, non-reducing 1,4-linked alpha-D-glucose residues with release of alpha-D-glucose. It is a lysosomal hydrolase that is required for the degradation of a small percentage (1-3%) of cellular glycogen in human. Deficiency of this enzyme results in glycogen-storage disease type II (GSDII), also referred to as Pompe disease, an autosomal recessive disorder. Structurally normal glycogen is accumulated in lysosomes and cytoplasm in affected patients, primarily in muscle tissues. Excessive glycogen storage within lysosomes may interrupt normal functioning of other organelles and leads to cellular injury. In turn, this leads to enlargement and dysfunction of the entire organ involved (eg, cardiomyopathy and muscle weakness). It has reported that the improper folding and trafficking of alpha-glucosidase resulting from the genetic mutations may account for a significant number of Pompe patients. […] We optimized this alpha-glucosidase assay in 1536-well plate format for identifying the novel small molecule inhibitors with the structures other than the sugar analogs in order to develop the new pharmacological chaperones. Mouse liver microsomes are created through broken up endoplasmic reticulum from mouse liver. These liver microsomes contain many drug metabolizing enzymes, such as Cytochome P-450s and flavin-containing monooxygenases. […] NIH Chemical Genomics Center [NCGC] NIH Molecular Libraries Probe Production Centers Network [MLPCN] MLPCN Grant: MH084841 Assay Submitter (PI): Wei Zheng
5uM of compound is incubated with mouse liver microsome; the reference compounds are verapamil and warfarin. Compounds are incubated and samples are analyzed with LC-MS/MS.

Percent remaining (higher = more stable), inactive:
CCCN1CNc2c(c(=O)[nH]c(=S)n2CCc2cccc(Cl)c2Cl)C1 2%
CCCN1CNc2c(c(=O)[nH]c(=S)n2CCc2ccc(OC)c(OC)c2)C1 4%
CCCN1CNc2c(c(=O)[nH]c(=S)n2Cc2ccc(OC)c(OC)c2)C1 63%
